Data published in patent publication EP0015615A1, “Phenyl piperazine derivatives, their preparation and antiagressive medicines containing them” (DUPHAR INTERNATIONAL RESEARCH B.V, priority 1979, dated 1980).

System: fighting behaviour of isolated mice
Assay: test on antiagressive activity in isolated mice
Format: in vivo
Conditions: Mus musculus, po, 1 h; male albino mice kept isolated for 4 weeks; administered orally; fighting behaviour evaluated sixty minutes after administration; 5 mice per dose
Procedure: The ED50-values mentioned in the table were determined in a test on antiagressive activity in isolated mice (Advances in Pharmacol. 5, (1967), 79). In this test, male albino mice were kept isolated for a period of 4 weeks and then selected for the test on the basis of fighting behaviour present. The selection criterion is the occurrence of 3 or more fighting periods within 3 minutes after a mouse which has not been kept isolated has been placed in the cage of the mouse kept isolated. The compounds to be investigated were administered orally to the selected mice. Per dose 5 mice were used. Sixty minutes after the administration of the compound to be investigated the animals were evaluated again for fighting behaviour. […] The ED50-value in mg of active substance per kg of body weight was calculated from the results obtained.

Compound | ED50 [mg/kg]
NC(=O)NC(=O)NCCN1CCN(c2cccc(C(F)(F)F)c2)CC1 [1 [-2-(N-allophanoylamino)ethyl]-4-(3-trifluoromethylphenyl)piperazine] | 1.5
CCN(CCN1CCN(c2cccc(C(F)(F)F)c2)CC1)C(C)=O [R4=CH3, R5=C2H5, R6=3-CF3, T=O, m=0, p=2, 1-[2-(N-acetyl-N-ethylamino)ethyl]-4-(3-trifluoromethylphenyl) piperazine] | 3.2
CC(=O)N(C)CCN1CCN(c2cccc(C(F)(F)F)c2)CC1.Cl [R4=CH3, R5=CH3, R6=3-CF3, T=O, m=0, p=2, 1-[2-(N-acetyl-N-methylamino)ethyl]-4-(3-trifluoromethylphenyl) piperazine hydrochloride (1:1)] | 0.9
CC(=O)NCCN1CCN(c2cccc(Br)c2)CC1 [R4=CH3, R5=H, R6=3-Br, T=O, m=0, p=2, 1-[2-(N-acetylamino)ethyl]-4-(3-bromophenyl)piperazine] | 2.6
CC(=O)NCCN1CCN(c2cccc(C(F)(F)F)c2)CC1 [R4=CH3, R5=H, R6=3-CF3, T=O, m=0, p=2, 1-[2-(N-acetylamino)ethyl]-4-(3-trifluoromethylphenyl)piperazine] | 0.7
CC(=O)NCC[N+]1([O-])CCN(c2cccc(C(F)(F)F)c2)CC1 [R4=CH3, R5=H, R6=3-CF3, T=O, m=1, p=2, 1-[2-(N-acetylamino)ethyl]-4-(3-trifluoromethylphenyl)piperazine 1-oxide] | 1.5
CC(=S)NCCN1CCN(c2cccc(C(F)(F)F)c2)CC1.Cl [R4=CH3, R5=H, R6=3-CF3, T=S, m=0, p=2, 1-[2-(N-thioacetylamino)ethyl]-4-(3-trifluoromethylphenyl)piperazine hydrochloride] | 1.6
CC(=O)NCCN1CCN(c2cccc(Cl)c2)CC1 [R4=CH3, R5=H, R6=3-Cl, T=O, m=0, p=2, 1-[2-(N-acetylamino)ethyl]-4-(3-chlorophenyl)piperazine] | 1.8
COC(=O)NCCN1CCN(c2cccc(C(F)(F)F)c2)CC1.Cl [R4=CH3O, R5=H, R6=3-CF3, T=O, m=0, p=2, 1-[2-(N-methoxycarbonylamino)ethyl]-4-(3-trifluoromethylphenyl) piperazine hydrochloride] | 0.6
COC(=O)NCCN1CCN(c2cccc(Cl)c2)CC1.Cl.Cl [R4=CH3O, R5=H, R6=3-Cl, T=O, m=0, p=2, 1-[2-(N-methoxycarbonylamino)ethyl]-4-(3-chlorophenyl)piperazine dihydrochloride] | 3.5
Cl.O=CNCCN1CCN(c2cccc(C(F)(F)F)c2)CC1 [R4=H, R5=H, R6=3-CF3, T=O, m=0, p=2, 1-[2-(N-formylamino)ethyl] -4-(3-trifluoromethylphenyl)piperazine hydrochloride] | 1.7
O=CNCCN1CCN(c2cccc(Cl)c2)CC1 [R4=H, R5=H, R6=3-Cl, T=O, m=0, p=2, 1-[2-(N-formylamino)ethyl]-4-(3-chlorophenyl)piperazine] | 1.5
NC(=O)NCCN1CCN(c2cccc(C(F)(F)F)c2)CC1 [R4=NH2, R5=H, R6=3-CF3, T=O, m=0, p=2, 1-[2-(N-aminocarbonylamino)ethyl]-4-(3-trifluoromethylphenyl) piperazine] | 1.3
NC(=O)NCC[N+]1([O-])CCN(c2cccc(C(F)(F)F)c2)CC1 [R4=NH2, R5=H, R6=3-CF3, T=O, m=1, p=2, 1-[2-(N-aminocarbonylamino)ethyl]-4-(3-trifluoromethylphenyl) piperazine 1-oxide] | 1.9
NC(=O)NCCN1CCN(c2cccc(Cl)c2)CC1 [R4=NH2, R5=H, R6=3-Cl, T=O, m=0, p=2, 1-[2-(N-aminocarbonylamino)ethyl]-4-(3-chlorophenyl)piperazine] | 2.3
NC(=O)NC(=O)NCCN1CCN(c2cccc(Cl)c2)CC1 [R4=NH2CONH, R5=H, R6=3-Cl, T=O, m=0, p=2] | 2.3
CC(=O)NCCN1CCN(c2ccccc2)CC1 [US pat. spec. 2.722.529 ex.12, reference compound] | 15
CC(=O)NCCN1CCN(c2ccccc2Cl)CC1 [US pat. spec. 2.833.770, reference compound] | 18
